Data reported in paper PMC10283505, “CVM-1118 (foslinanib), a 2-phenyl-4-quinolone derivative, promotes apoptosis and inhibits vasculogenic mimicry via targeting TRAP1” (Pathology and Oncology Research, 2023).
Entries after “also recorded” stand apart in the source; their conditions may differ.

How the values were obtained:
Nodal = test: qPCR analysis of Nodal expression; assay type: cell-based, human; conditions: C8161, 10 nM, 8–72 h
Procedure: For the qPCR analysis of Nodal and Notch expression, total RNA was isolated from cells using the PerfectPure RNA Cell Isolation kit (5Prime) and then reverse-transcribed using 1 μg RNA, RT master mix cocktail and MMLV reverse transcriptase. qPCR was performed on a 7500 Real-Time PCR System (Life Technologies) using manufacturer recommended protocol. TaqMan gene expression human primer/probe sets (Applied Biosystems) utilized were Nodal (Hs00250630_s1) and Notch4 (Hs00270200_m1). Target gene expression was normalized to appropriate house-keeping genes (e.g., RPLP0 or GAPDH). Data was analyzed using Life Technologies Sequence Detection Software.

[1] = Cell viability at VM-inhibiting concentration; assay type: cell-based; conditions: human, human melanoma cells; 10 nM; read-out: percentage of viable cells
MDA-MB-231 = test: Succinate level (Abcam kit, hypoxia); assay type: cell-based, human; conditions: MDA-MB-231, 100 nM, 72 h, vs vehicle control
Procedure: (§1) Succinate levels in the cells were assessed using the Abcam assay kit (ab204718). Cells were grown under hypoxic conditions (1% O2) at 37°C using a ProOx P110 Oxygen Controller (BioSpherix) and hypoxia chamber to establish a consistent and steady expression of HIF-1α in these cells for the experiments. At 80% confluence, cells were rinsed with phosphate buffered saline (PBS; 137 mM NaCl/2.7 mM KCl/10 mM Na2HPO4/1.8 mM KH2PO4, pH 7.4), then harvested by scrapping into a modified radio-immunoprecipitation assay (RIPA) buffer (100 mM Tris-HCl, 150 mM NaCl, 1% deoxycholate, 1% Triton X-100, 0.1% SDS, pH 7.4) plus protease inhibitor cocktail (Complete Mini; Roche) using 100 μL buffer per 1 × 10^6 cells. After sonication using a Fisher sonic dismembrator with microprobe (Fisher Scientific; five pulses at 2 s intervals) and centrifugation at 13,000 rpm for 30 min, the protein lysates (supernatants) were recovered, and protein concentrations determined using a bicinchoninic acid (BCA) assay (Bio-Rad). The samples were then deproteinated using Abcam 10 kDa Spin Columns (ab93349; which reduced the protein concentration by about 90%) and the samples were standardized at <10 μg of protein per sample per 50 μL of assay volume (as directed by the Abcam technical response team for working with these samples). The concentration of succinate (nmol/μL or μmol/mL or […]) for each sample was calculated after subtracting a background control (which was the sample run with assay buffer in place of the succinate converter component to account for and subtract any contaminating signal generated by NADH), as follows: Succinate = (A/B) × D; where: A = Amount of succinate (succinic acid) from the Standard Curve; B = Sample volume added into the reaction well (μL); D = Sample dilution factor. Two separate experiments were performed for each cell line.

SK-MEL28 = test: Succinate level (Abcam kit, hypoxia); assay type: cell-based, human; conditions: SK-MEL28, 100 nM, 72 h, vs vehicle control
Procedure: as §1

COLO205 = test: Succinate level (Abcam kit, hypoxia); assay type: cell-based, human; conditions: COLO205, 100 nM, 72 h, vs vehicle control
Procedure: as §1

SKOV3 = test: Succinate level (Abcam kit, hypoxia); assay type: cell-based, human; conditions: SKOV3, 100 nM, 72 h, vs vehicle control
Procedure: as §1

HCC-2998 = test: NCI 60 cytotoxicity screening; assay type: cell-based; conditions: Homo sapiens; HCC-2998, Colon
HCT-116 cells = test: Flow cytometry cell cycle analysis (PI); assay type: cell-based, human; conditions: HCT-116, 48 hours, dose-response
Procedure: Figure S2 CVM-1125 induced cell cycle arrest at G2/M in HCT-116 cells
Dose-response of CVM-1125 on cell cycle profile in HCT-116 cells was assessed by flow cytometry after treatment for 48 hours. Fluorescent signals of propidium iodide (FL2-A) of single cells were attributed to cell cycle phases and converted into percentage of the whole population of single cells (100%). The data shown are representative of at least three independent experiments.
(1 picture or pasted object on this page, not shown here)

UACC-257 = test: NCI 60 cytotoxicity screening; assay type: cell-based; conditions: Homo sapiens; UACC-257, Melanoma
TGFβ1/1 (HIC5) = TGFβ1/1 (HIC5) (Homo sapiens, UniProt O43294); test: Surface plasmon resonance (Biacore); assay type: binding; conditions: TGFβ1/1, SPR
Chain of TGFβ1/1 (HIC5) (O43294 whole entry): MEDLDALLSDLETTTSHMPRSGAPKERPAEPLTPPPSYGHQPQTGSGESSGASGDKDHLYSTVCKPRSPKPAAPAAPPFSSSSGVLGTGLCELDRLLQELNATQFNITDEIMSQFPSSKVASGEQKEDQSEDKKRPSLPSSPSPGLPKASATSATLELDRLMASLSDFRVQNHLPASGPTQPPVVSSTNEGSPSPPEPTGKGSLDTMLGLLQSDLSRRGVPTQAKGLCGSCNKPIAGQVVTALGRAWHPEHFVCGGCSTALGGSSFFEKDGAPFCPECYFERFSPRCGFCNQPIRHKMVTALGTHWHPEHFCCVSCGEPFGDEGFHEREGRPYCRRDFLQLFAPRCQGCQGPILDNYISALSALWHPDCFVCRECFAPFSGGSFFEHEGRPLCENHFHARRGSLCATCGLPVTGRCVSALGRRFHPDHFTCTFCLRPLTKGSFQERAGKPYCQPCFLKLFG

[2] = target: T1, human Hsp90 recombinant protein (HSP90AB1) (Homo sapiens, UniProt P08238); test: Surface plasmon resonance (Biacore); assay type: binding; conditions: recombinant human Hsp90 beta protein
T1 construct: purchased Abcam ab131923
T1 sequence (P08238 whole entry): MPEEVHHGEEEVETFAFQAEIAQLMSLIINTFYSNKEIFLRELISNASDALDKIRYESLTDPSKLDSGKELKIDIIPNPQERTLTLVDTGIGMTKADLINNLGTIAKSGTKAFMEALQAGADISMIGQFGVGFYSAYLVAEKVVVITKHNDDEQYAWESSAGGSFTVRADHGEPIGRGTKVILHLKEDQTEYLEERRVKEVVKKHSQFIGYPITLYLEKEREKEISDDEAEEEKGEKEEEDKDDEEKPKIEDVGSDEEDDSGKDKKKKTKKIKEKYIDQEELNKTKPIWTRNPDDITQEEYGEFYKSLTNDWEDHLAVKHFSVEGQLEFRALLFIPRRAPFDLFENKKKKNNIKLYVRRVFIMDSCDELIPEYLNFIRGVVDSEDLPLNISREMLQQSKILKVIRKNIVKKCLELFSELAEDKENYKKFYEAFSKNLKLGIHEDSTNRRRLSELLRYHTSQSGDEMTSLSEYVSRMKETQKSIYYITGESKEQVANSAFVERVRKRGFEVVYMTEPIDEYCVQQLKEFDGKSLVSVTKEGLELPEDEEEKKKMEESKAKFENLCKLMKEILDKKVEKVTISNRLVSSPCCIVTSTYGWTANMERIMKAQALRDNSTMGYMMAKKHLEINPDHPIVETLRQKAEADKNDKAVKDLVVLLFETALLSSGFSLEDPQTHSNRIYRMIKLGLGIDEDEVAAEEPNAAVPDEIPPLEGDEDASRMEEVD
Procedure: To confirm the molecular binding of the targeted protein, Surface Plasmon Resonance (SPR) was performed with a Biacore 3000. TRAP1 recombinant protein (Abcam, ab123775) or human Hsp90 recombinant protein (HSP90AB1, Abcam, ab131923) were immobilized on a CM5 sensor chip surface using the amine coupling method according to the manufacturer’s instruction (Biacore, GE Healthcare). CVM-1125 was dissolved in sodium carbonate buffer (pH 9) and then diluted in HBS-EDTA-P20 buffer to desired concentrations (five serial dilutions from 1 × 10^−5 to 1 × 10^−8 M) and injected at flow 30 μL/min with KINJET 60/180 %pos, analyte position, volume, and dissociation time. Specific binding was calculated using BiaEval 3 software.

OVCAR-3 = test: NCI 60 cytotoxicity screening; assay type: cell-based; conditions: Homo sapiens; OVCAR-3, Ovarian
COLO 205 = test: NCI 60 cytotoxicity screening; assay type: cell-based; conditions: Homo sapiens; COLO 205, Colon

| Structure (SMILES) | expression of Nodal (mRNA) (Nodal) | viability at 0.01 µM [1] [%] | reduction of succinate levels (MDA-MB-231) [%] | reduction of succinate levels (SK-MEL28) [%] | reduction of succinate levels (COLO205) [%] | reduction of succinate levels (SKOV3) [%] | GI50 (HCC-2998) [nM] | Effect on cell cycle profile (HCT-116 cells) | GI50 (UACC-257) [nM] | Association (ka) (TGFβ1/1 (HIC5)) | Dissociation (kd) (TGFβ1/1 (HIC5)) | KD (kd/ka) (TGFβ1/1 (HIC5)) | interaction with Hsp90 by SPR [2] | GI50 (OVCAR-3) [nM] | GI50 (COLO 205) [nM] |
| --- | --- | --- | --- | --- | --- | --- | --- | --- | --- | --- | --- | --- | --- | --- | --- |
| COc1ccc2[nH]c(-c3cccc(F)c3)cc(=O)c2c1OP(=O)(O)O [CVM-1118] | decreased | > 90 |  |  |  |  |  |  |  |  |  |  |  |  |  |
| COc1ccc2[nH]c(-c3cccc(F)c3)cc(=O)c2c1O [CVM-1125] |  |  | 20 | 23 | 18 | 35 | 32.1 | G2/M arrest and increased sub-G1 | 33.7 | No dose dependent interaction | No dose dependent interaction | No dose dependent interaction | no specific interaction; also recorded: not interacting | 19.1 | 25.2 |
